Data as given in patent US20230293517A1, “ANTAGONIST COMPOUNDS” (AdoRx Therapeutics Limited, priority 2020, published 2023).
pKi: −log10 of the molar value. Several values for one entry are separate records, joined by “and”; a condition that tells them apart may be missing. Equal entries are not always repeated. Structures can show the parent of a compound that is named as a salt. Where two headings read alike, the source gives them in different places.

Key:
[1] = target: human Adenosine A2a receptor (Homo sapiens (Human), UniProt P29274); test: Adenosine receptor TR-FRET binding assay (A2a); details: inhibition of binding of 100 nM CA200645, CHO cell membranes
Description: (§1) Biological Example 1—Adenosine Receptor Time-Resolved Fluorescence Resonance Energy Transfer (TRFRET) Binding Assay
(§2) All FRET binding experiments were conducted at room temperature in white 384-well plates, in assay binding buffer containing 1×LabMed (Cisbio, France), 100 μg/mL saponin, 1% DMSO and 0.02% pluronic acid. Binding of the fluorescently labelled Adenosine receptor antagonist XAC (CA200645, FRET acceptor) to terbium-labelled A1, A2a, A2b and A3 adenosine receptors (FRET donors) was detected by time-resolved FRET due to the close proximity of the donor and acceptor in a binding event. To investigate the ability of unlabelled test compounds to bind to Adenosine A1, A2a, A2b and A3 receptors, dose response curves were constructed that determined the ability of a range of concentrations to inhibit the binding of 30 nM CA200645 to the A2b receptor and 100 nM CA200645 to the A1, A2a, and A3 receptor.
(§3) Serial dilution (1:3 dilutions) of test compounds in neat DMSO and transfer of a 400 nL sample of test compound into the assay plate was carried out using the Mosquito (TTP Labtech, UK). The compound samples were incubated for 2 hours at room temperature with a fixed concentration of CA200645 defined for each receptor (see above) and CHO cell membranes containing the human Adenosine A1 (0.5 μg/well), A2a (0.3 μg/well), A2b (1 μg/well) or A3 (1 μg/well) receptor in 40 μL of assay buffer. Total and non-specific binding of CA200645 was determined in the absence and presence of 10 μM XAC, respectively. Following 2 hours incubation, the level of CA200645 binding was detected on a Pherastar FSX (BMG Labtech, Germany) using standard TR-FRET settings. The terbium donor was excited with three laser flashes at a wavelength of 337 nm, and donor and acceptor emission was detected at 620 nm and 665 nm wavelengths, respectively. FRET ratios were obtained by multiplying the acceptor/donor ratio value by 10,000. Specific binding was determined by subtracting the non-specific binding FRET ratio from the total binding FRET ratio. Compound IC50 curves were analysed using GraphPad Prism 7.0 (GraphPad, USA) and Ki affinity values were determined from the obtained IC50 values using the method of Cheng and Prusoff.

[2] = target: human Adenosine A2b receptor (Homo sapiens (Human), UniProt P29275); test: Adenosine receptor TR-FRET binding assay (A2b)
Description: as §1, §2, §3

[3] = target: human Adenosine A1 receptor (Homo sapiens (Human), UniProt P30542); test: Adenosine receptor TR-FRET binding assay (A1); details: inhibition of binding of 100 nM CA200645, CHO cell membranes
Description: as §1, §2, §3

[4] = TR-FRET, inhibition of binding of 30 nM CA200645, CHO cell membranes

human Adenosine A1 receptor, sequence (P30542 whole entry): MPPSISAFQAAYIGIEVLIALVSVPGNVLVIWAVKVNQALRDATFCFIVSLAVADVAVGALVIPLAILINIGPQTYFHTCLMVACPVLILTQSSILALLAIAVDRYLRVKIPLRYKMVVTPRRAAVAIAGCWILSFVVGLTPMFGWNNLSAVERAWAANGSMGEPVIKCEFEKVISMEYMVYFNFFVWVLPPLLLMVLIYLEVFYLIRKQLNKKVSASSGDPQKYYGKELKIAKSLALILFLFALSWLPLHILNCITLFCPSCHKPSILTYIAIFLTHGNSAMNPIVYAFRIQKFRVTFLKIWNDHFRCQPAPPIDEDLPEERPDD
human Adenosine A2a receptor, sequence (P29274 whole entry): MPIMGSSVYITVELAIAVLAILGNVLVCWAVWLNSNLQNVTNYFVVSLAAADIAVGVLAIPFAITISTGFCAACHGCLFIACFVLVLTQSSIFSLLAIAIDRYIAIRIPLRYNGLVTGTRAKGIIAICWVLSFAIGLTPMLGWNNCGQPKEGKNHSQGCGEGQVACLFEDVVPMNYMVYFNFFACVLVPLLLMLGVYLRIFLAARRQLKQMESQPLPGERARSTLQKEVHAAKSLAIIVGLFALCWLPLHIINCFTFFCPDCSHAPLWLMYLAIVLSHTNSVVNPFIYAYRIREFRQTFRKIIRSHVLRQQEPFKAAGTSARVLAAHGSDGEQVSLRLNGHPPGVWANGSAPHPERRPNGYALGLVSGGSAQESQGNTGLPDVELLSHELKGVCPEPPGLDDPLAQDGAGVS
human Adenosine A2b receptor, sequence (P29275 whole entry): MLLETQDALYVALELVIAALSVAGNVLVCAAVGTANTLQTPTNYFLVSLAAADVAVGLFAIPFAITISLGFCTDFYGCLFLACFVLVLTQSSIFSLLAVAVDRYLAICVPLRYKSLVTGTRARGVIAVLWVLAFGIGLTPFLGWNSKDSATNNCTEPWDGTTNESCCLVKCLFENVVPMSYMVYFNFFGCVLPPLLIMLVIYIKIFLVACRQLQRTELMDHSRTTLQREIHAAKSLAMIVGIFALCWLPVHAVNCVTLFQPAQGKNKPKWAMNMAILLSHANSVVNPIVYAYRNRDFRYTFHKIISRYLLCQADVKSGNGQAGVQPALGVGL

pKi [1] | pKi [2] | pKi [3] | pKi [2, 4] | Structure (SMILES) | pKi ([3]; formate salt) | pKi ([2]; TR-FRET, inhibition of binding of 30 nM CA200645, CHO cell membranes, formate salt)
8.46 | 8.12 | – | – | Cc1cc(-c2sc(NC(=O)N3C[C@@H]4NCCO[C@H]4C3)nc2-c2cccc(C#N)c2)cc(C)n1 (racemic) [Example 14.3, rac-(4aS,7aS)—N-[4-(3-Cyanophenyl)-5-(2,6-dimethyl-4-pyridyl)thiazol-2-yl]-3,4,4a,5,7,7a-hexahydro-2H-pyrrolo[3,4-b][1,4]oxazine-6-carboxamide 2,2,2-trifluoroacetic acid salt] | – | –
7.89 | – | 6.96 | 7.10 | Cc1cc(-c2sc(NC(=O)N3C[C@@H](C)NC[C@@H]3C)nc2-c2cccc(C#N)c2)cc(C)n1 (relative stereo) [Example 7.11, trans-N-[4-(3-Cyanophenyl)-5-(2,6-dimethyl-4-pyridyl)thiazol-2-yl]-2,5-dimethyl-piperazine-1-carboxamide] | – | –
8.67 | – | 6.87 | 8.41 | Cc1cc(-c2sc(NC(=O)N3CCCC3CC(C)(C)O)nc2-c2cccc(C#N)c2)cc(Cl)n1 (stereo not shown) [Example 3.3] | – | –
7.91 | – | 6.57 | 7.89 | Cc1cc(-c2sc(NC(=O)N3CCN(CC(C)(C)O)CC3)nc2-c2cccc(C#N)c2)cc(C)n1 [Example 4.34, N-[4-(3-Cyanophenyl)-5-(2,6-dimethyl-4-pyridyl)thiazol-2-yl]-4-(2-hydroxy-2-methyl-propyl)piperazine-1-carboxamide] | – | –
8.37 | – | 6.26 | 7.57 | Cc1cc(-c2sc(NC(=O)N3CCN(C(C)(C)CO)CC3)nc2-c2cccc(C#N)c2)cc(C)n1 [Example 4.37, N-[4-(3-Cyanophenyl)-5-(2,6-dimethyl-4-pyridyl)thiazol-2-yl]-4-(2-hydroxy-1,1-dimethyl-ethyl)piperazine-1-carboxamide] | – | –
– | – | – | – | Cc1cc(-c2sc(NC(=O)N3CCN4CCC[C@H]4C3)nc2-c2cccc(C#N)c2)cc(C)n1 [Example 4.38, (8aS)-N-[4-(3-Cyanophenyl)-5-(2,6-dimethyl-4-pyridyl)thiazol-2-yl]-3,4,6,7,8,8a-hexahydro-1H-pyrrolo[1,2-a]pyrazine-2-carboxamide formate salt] | 6.74 and 7.12 | 8.09 and 8.46
9.70 | – | 7.74 | 8.19 | Cc1cc(-c2sc(NC(=O)N3CCC(C)(C#N)CC3)nc2-c2cccc(C#N)c2)cc(C2COC2)n1 [Example 6.111, 4-Cyano-N-[4-(3-cyanophenyl)-5-[2-methyl-6-(oxetan-3-yl)-4-pyridyl]thiazol-2-yl]-4-methyl-piperidine-1-carboxamide] | – | –
8.37 | – | 6.47 | 7.63 | Cc1cc(-c2sc(NC(=O)N3CC(N4CCOCC4)C3)nc2-c2cccc(C#N)c2)cc(C)n1 [Example 6.112, N-[4-(3-Cyanophenyl)-5-(2,6-dimethyl-4-pyridyl)thiazol-2-yl]-3-morpholino-azetidine-1-carboxamide] | – | –
8.00 | – | 6.62 | 7.64 | Cc1cc(-c2sc(NC(=O)N3CC(N4CCCC4)C3)nc2-c2cccc(C#N)c2)cc(C)n1 [Example 6.114, N-[4-(3-Cyanophenyl)-5-(2,6-dimethyl-4-pyridyl)thiazol-2-yl]-3-pyrrolidin-1-yl-azetidine-1-carboxamide] | – | –
8.10 | – | 6.75 | 7.54 | Cc1cc(-c2sc(NC(=O)N3CC(N(C)C)C3)nc2-c2cccc(C#N)c2)cc(C)n1 [Example 6.115, N-[4-(3-Cyanophenyl)-5-(2,6-dimethyl-4-pyridyl)thiazol-2-yl]-3-(dimethylamino)azetidine-1-carboxamide] | – | –
7.95 | – | 6.91 | 7.19 | Cc1cc(-c2sc(NC(=O)N3CC4CN(C)CC43)nc2-c2cccc(C#N)c2)cc(C)n1 (stereo not shown) [Example 6.120, N-[4-(3-Cyanophenyl)-5-(2,6-dimethyl-4-pyridyl)thiazol-2-yl]-3-methyl-3,6-diazabicyclo[3.2.0]heptane-6-carboxamide] | – | –
8.71 | – | 6.91 | 8.17 | Cc1cc(-c2sc(NC(=O)N3CCN4CCC3C4)nc2-c2cccc(C#N)c2)cc(C)n1 (stereo not shown) [Example 6.121, N-[4-(3-Cyanophenyl)-5-(2,6-dimethyl-4-pyridyl)thiazol-2-yl]-1,4-diazabicyclo[3.2.1]octane-4-carboxamide] | – | –
8.99 | – | 6.68 | 8.24 | Cc1cc(-c2sc(NC(=O)N3CCC4(CC3)CNCCO4)nc2-c2cccc(C#N)c2)cc(C)n1 [Example 7.3, N-[4-(3-Cyanophenyl)-5-(2,6-dimethyl-4-pyridyl)thiazol-2-yl]-1-oxa-4,9-diazaspiro[5.5]undecane-9-carboxamide] | – | –
8.39 | – | 6.79 | 7.65 | Cc1cc(-c2sc(NC(=O)N3C[C@H]4CC[C@@H]3CN4)nc2-c2cccc(C#N)c2)cc(C)n1 [Example 7.6, (1R,4R)—N-[4-(3-Cyanophenyl)-5-(2,6-dimethyl-4-pyridyl)thiazol-2-yl]-2,5-diazabicyclo[2.2.2]octane-2-carboxamide] | – | –
8.28 | – | 7.31 | 7.74 | Cc1cc(-c2sc(NC(=O)N3C[C@H](C)NC[C@@H]3C)nc2-c2cccc(C#N)c2)cc(C)n1 [Example 7.7, (2S,5S)—N-[4-(3-Cyanophenyl)-5-(2,6-dimethyl-4-pyridyl)thiazol-2-yl]-2,5-dimethyl-piperazine-1-carboxamide] | – | –
8.17 | – | 6.71 | 7.22 | Cc1cc(-c2sc(NC(=O)N3[C@H](C)CNC[C@H]3C)nc2-c2cccc(C#N)c2)cc(C)n1 [Example 7.8, (2R,6R)—N-[4-(3-Cyanophenyl)-5-(2,6-dimethyl-4-pyridyl)thiazol-2-yl]-2,6-dimethyl-piperazine-1-carboxamide] | – | –
7.99 | – | 7.21 | 7.35 | Cc1cc(-c2sc(NC(=O)N3CCNCC3(C)C)nc2-c2cccc(C#N)c2)cc(C)n1 [Example 7.9, N-[4-(3-Cyanophenyl)-5-(2,6-dimethyl-4-pyridyl)thiazol-2-yl]-2,2-dimethyl-piperazine-1-carboxamide] | – | –

Structure (SMILES) | pKi [1] | pKi [2] | pKi [3] | pKi [2, 4] | pKi ([3]; formate salt) | pKi ([2]; TR-FRET, inhibition of binding of 30 nM CA200645, CHO cell membranes, formate salt)
Cc1cc(-c2sc(NC(=O)N3CCC4(CCN4C)C3)nc2-c2cccc(C#N)c2)cc(C)n1 (stereo not shown) [Example 4.36, N-[4-(3-Cyanophenyl)-5-(2,6-dimethyl-4-pyridyl)thiazol-2-yl]-1-methyl-1,7-diazaspiro[3.4]octane-7-carboxamide formate salt] | 8.61 | – | 6.50 | 7.86 | – | –
Cc1cc(-c2sc(NC(=O)N3C[C@H]4CC[C@@H](C3)N(C)C4)nc2-c2cccc(C#N)c2)cc(C)n1 [Example 6.5, (1S,5S)-N-[4-(3-Cyanophenyl)-5-(2,6-dimethyl-4-pyridyl)thiazol-2-yl]-6-methyl-3,6-diazabicyclo[3.2.2]nonane-3-carboxamide] | 8.33 | – | 7.03 | 7.64 | – | –
Cc1cc(-c2sc(NC(=O)N3CCN(C4CCOCC4)CC3)nc2-c2cccc(C#N)c2)cc(C)n1 [Example 6.113, N-[4-(3-Cyanophenyl)-5-(2,6-dimethyl-4-pyridyl)thiazol-2-yl]-4-tetrahydropyran-4-yl-piperazine-1-carboxamide diformate salt] | 7.97 | – | 6.44 | 8.08 | – | –
Cc1cc(-c2sc(NC(=O)N3CCC(CN4CCOCC4)CC3)nc2-c2cccc(C#N)c2)cc(C)n1 [Example 6.116, N-[4-(3-Cyanophenyl)-5-(2,6-dimethyl-4-pyridyl)thiazol-2-yl]-4-(morpholinomethyl)piperidine-1-carboxamide formate salt] | 8.13 | – | 6.55 | 8.00 | – | –
Cc1cc(-c2sc(NC(=O)N3C4CCC3CNC4)nc2-c2cccc(C#N)c2)cc(C)n1 [Example 7.4, N-[4-(3-Cyanophenyl)-5-(2,6-dimethyl-4-pyridyl)thiazol-2-yl]-3,8-diazabicyclo[3.2.1]octane-8-carboxamide] | 8.56 | – | 7.24 | 7.87 | – | –
Cc1cc(-c2sc(NC(=O)N3C4CNCC3C4)nc2-c2cccc(C#N)c2)cc(C)n1 [Example 7.5, N-[4-(3-Cyanophenyl)-5-(2,6-dimethyl-4-pyridyl)thiazol-2-yl]-3,6-diazabicyclo[3.1.1]heptane-6-carboxamide] | 8.90 | – | 8.05 | 7.92 | – | –
